Test results taken from ChEMBL document CHEMBL4482323, “Novel heterocyclic compound, method for preparing same, and pharmaceutical composition comprising same as active ingredient for preventing or treating cancer” (2017).

Assays:
NEDD8 activating enzyme = molecular target: T1, NEDD8 activating enzyme (Homo sapiens, UniProt Q8TBC4); assay: Inhibition of NAE (unknown origin) using GST-tagged Ubc12 and Flag-tagged Nedd8 measured after 2 hrs by TR-FRET assay; format: protein-complex assay
T1 sequence (Q8TBC4 whole entry): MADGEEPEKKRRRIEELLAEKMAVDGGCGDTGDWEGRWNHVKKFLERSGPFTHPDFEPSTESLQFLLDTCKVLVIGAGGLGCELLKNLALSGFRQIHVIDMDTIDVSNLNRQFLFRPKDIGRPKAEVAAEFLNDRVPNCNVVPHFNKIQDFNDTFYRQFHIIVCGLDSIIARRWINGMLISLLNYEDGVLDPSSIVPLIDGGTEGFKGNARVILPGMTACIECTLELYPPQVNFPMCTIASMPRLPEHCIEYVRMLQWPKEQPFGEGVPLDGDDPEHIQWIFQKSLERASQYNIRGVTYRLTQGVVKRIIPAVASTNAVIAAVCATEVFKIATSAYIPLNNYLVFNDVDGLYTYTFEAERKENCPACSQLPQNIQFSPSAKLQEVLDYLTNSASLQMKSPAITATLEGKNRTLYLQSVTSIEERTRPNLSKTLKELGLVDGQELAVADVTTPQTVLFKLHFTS
T1 sequence (Q13564 whole entry): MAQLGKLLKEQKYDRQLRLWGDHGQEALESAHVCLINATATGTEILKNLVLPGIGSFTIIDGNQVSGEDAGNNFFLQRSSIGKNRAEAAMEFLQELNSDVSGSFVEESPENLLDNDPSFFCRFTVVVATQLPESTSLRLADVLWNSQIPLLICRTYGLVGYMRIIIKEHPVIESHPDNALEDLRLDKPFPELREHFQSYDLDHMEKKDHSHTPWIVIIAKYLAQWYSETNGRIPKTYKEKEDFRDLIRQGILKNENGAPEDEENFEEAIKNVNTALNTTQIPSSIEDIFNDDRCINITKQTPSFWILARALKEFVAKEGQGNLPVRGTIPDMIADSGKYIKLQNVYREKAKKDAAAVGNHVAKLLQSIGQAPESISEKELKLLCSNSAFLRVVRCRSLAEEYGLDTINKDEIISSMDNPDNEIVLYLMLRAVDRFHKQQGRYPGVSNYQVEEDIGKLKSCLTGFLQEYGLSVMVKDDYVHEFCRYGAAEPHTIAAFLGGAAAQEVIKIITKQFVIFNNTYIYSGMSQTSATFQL

SUMO-activating enzyme = SUMO-activating enzyme (Homo sapiens, UniProt Q9UBT2); assay: Inhibition of SAE (unknown origin) using recombinant His-tagged human SUMO1 measured after 2 hrs by HTRF assay; format: protein-complex assay
SUMO-activating enzyme, sequence (Q9UBE0 whole entry): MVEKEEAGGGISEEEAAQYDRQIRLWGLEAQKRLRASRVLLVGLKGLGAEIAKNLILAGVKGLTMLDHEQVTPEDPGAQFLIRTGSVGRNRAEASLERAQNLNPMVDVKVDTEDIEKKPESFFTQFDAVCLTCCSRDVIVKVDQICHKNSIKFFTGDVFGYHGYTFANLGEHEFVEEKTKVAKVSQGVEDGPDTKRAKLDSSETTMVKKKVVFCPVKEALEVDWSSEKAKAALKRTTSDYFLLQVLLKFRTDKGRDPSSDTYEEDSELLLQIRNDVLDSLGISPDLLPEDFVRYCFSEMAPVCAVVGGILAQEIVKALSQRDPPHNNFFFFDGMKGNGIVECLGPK
SUMO-activating enzyme, sequence (Q9UBT2 whole entry): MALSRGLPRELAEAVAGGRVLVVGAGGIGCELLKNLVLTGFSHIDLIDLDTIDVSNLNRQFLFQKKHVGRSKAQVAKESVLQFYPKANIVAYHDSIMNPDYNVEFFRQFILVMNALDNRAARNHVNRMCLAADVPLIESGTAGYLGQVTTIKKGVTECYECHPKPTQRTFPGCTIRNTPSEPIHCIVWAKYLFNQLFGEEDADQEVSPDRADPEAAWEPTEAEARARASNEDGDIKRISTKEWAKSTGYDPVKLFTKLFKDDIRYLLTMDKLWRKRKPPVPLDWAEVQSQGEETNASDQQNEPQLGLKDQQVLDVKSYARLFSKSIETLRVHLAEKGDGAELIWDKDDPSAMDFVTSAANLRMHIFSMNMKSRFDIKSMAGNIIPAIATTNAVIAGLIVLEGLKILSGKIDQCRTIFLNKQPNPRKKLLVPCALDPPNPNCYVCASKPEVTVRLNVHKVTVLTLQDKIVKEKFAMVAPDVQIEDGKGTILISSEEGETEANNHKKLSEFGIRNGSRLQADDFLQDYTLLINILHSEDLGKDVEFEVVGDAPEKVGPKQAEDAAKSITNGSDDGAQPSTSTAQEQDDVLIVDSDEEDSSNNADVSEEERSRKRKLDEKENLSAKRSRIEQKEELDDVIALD

HCT-116 = assay: Antiproliferative activity against human HCT116 cells after 48 hrs by CCK8 assay; format: functional; settings: HCT-116, 48 h, read-out: LD50 (the source's name)
THP-1 = assay: Antiproliferative activity against human THP1 cells after 48 hrs by CCK8 assay; format: functional; settings: THP-1, 48 h, read-out: LD50 (the source's name)

Question: `Cc1cc(Cn2cc(C(=O)c3cncnc3N[C@@H]3C[C@H](COS(N)(=O)=O)[C@@H](O)[C@H]3O)c3cc(F)ccc32)ccc1F` was tested. Which IC50 (NEDD8 activating enzyme) did it give?
Answer: Its IC50 is 15 nM.

Question: And the IC50 (SUMO-activating enzyme)?
Answer: The IC50 was 1720 nM.

Question: For `N#Cc1cccc(Cn2cc(C(=O)c3cncnc3N[C@@H]3C[C@H](COS(N)(=O)=O)[C@@H](O)[C@H]3O)c3ccccc32)c1`, which CC50 (HCT-116) is on record?
Answer: The CC50 was 15100 nM.

Question: And the CC50 (THP-1)?
Answer: Its CC50 is 13200 nM.

Question: Which results are given for `NS(=O)(=O)OC[C@H]1C[C@@H](Nc2ncncc2C(=O)c2cn(Cc3ccccc3)c3ccccc23)[C@H](O)[C@@H]1O`?
Answer: CC50 (HCT-116): 228 nM; IC50 (NEDD8 activating enzyme): 5 nM; CC50 (THP-1): < 30 nM; IC50 (SUMO-activating enzyme): 120 nM

Question: How did the IC50 (NEDD8 activating enzyme) turn out when `Cc1c(Cn2cc(C(=O)c3cncnc3N[C@@H]3C[C@H](COS(N)(=O)=O)[C@@H](O)[C@H]3O)c3cc(F)ccc32)cccc1C(F)(F)F` was run?
Answer: The IC50 was 112 nM.

Question: What about the IC50 (SUMO-activating enzyme) of the same molecule?
Answer: Its IC50 is 990 nM.

Question: `NS(=O)(=O)OC[C@H]1C[C@@H](Nc2ncncc2C(=O)c2cn(Cc3ccccc3)c3ccccc23)[C@@H](F)[C@@H]1O` was tested. Which IC50 (SUMO-activating enzyme) did it give?
Answer: Its IC50 is 1840 nM.

Question: How did the IC50 (NEDD8 activating enzyme) turn out when `NS(=O)(=O)OC[C@H]1C[C@@H](Nc2ncncc2C(=O)c2cn(Cc3ccc4ccccc4c3)c3ccc(F)cc23)[C@H](O)[C@@H]1O` was run?
Answer: Its IC50 is 141 nM.

Question: Which CC50 (HCT-116) does the source give for `NS(=O)(=O)OC[C@H]1C[C@@H](Nc2ncncc2C(=O)c2cn(Cc3ccc(F)c(Cl)c3)c3ccccc23)[C@H](O)[C@@H]1O` here?
Answer: Its CC50 is 1800 nM.

Question: What about the CC50 (THP-1) of the same molecule?
Answer: Its CC50 is 1430 nM.

Question: And the IC50 (SUMO-activating enzyme)?
Answer: Its IC50 is 1600 nM.

Question: How did the IC50 (SUMO-activating enzyme) turn out when `NS(=O)(=O)OC[C@H]1C[C@@H](Nc2ncncc2C(=O)c2nn(Cc3cccc(Br)c3)c3ccccc23)[C@H](O)[C@@H]1O` was run?
Answer: The IC50 was 1700 nM.

Question: With `NS(=O)(=O)OC[C@H]1C[C@@H](Nc2ncncc2C(=O)c2cn(Cc3ccc(F)c(F)c3)c3ccccc23)[C@H](O)[C@@H]1O` as the molecule, how does the CC50 (HCT-116) read?
Answer: Its CC50 is 2280 nM.

Question: What about the IC50 (NEDD8 activating enzyme) of the same molecule?
Answer: The IC50 was 20 nM.

Question: What about the CC50 (THP-1) of the same molecule?
Answer: The CC50 was 1810 nM.

Question: What about the IC50 (SUMO-activating enzyme) of the same molecule?
Answer: The IC50 was 3480 nM.

Question: Which results are given for `NS(=O)(=O)OC[C@H]1C[C@@H](Nc2ncncc2C(=O)c2cn(Cc3cccc(C(F)(F)F)c3)c3ccccc23)[C@H](O)[C@@H]1O`?
Answer: CC50 (HCT-116): 1240 nM; IC50 (NEDD8 activating enzyme): 12 nM; CC50 (THP-1): 1280 nM; IC50 (SUMO-activating enzyme): 3180 nM

Question: For `NS(=O)(=O)OC[C@H]1C[C@@H](Nc2ncncc2C(=O)c2cn(Cc3ccc(S(F)(F)(F)(F)F)cc3)c3ccc(F)cc23)[C@H](O)[C@@H]1O`, which IC50 (NEDD8 activating enzyme) is on record?
Answer: Its IC50 is 10 nM.

Question: Which results are given for `NS(=O)(=O)OC[C@H]1C[C@@H](Nc2ncncc2C(=O)c2cn(Cc3ccccc3F)c3ccccc23)[C@H](O)[C@@H]1O`?
Answer: CC50 (HCT-116): 3120 nM; CC50 (THP-1): 1000 nM; IC50 (SUMO-activating enzyme): 2880 nM

Question: With `NS(=O)(=O)OC[C@H]1C[C@@H](Nc2ncncc2C(=O)c2cn(Cc3cccc(N4CCOCC4)c3)c3ccc(F)cc23)[C@H](O)[C@@H]1O` as the molecule, how does the IC50 (NEDD8 activating enzyme) read?
Answer: The IC50 was 13 nM.

Question: And the IC50 (SUMO-activating enzyme)?
Answer: The IC50 was > 10000 nM.

Question: `NS(=O)(=O)OC[C@H]1C[C@@H](Nc2ncncc2C(=O)c2cn(Cc3cccc(I)c3)c3ccccc23)[C@H](O)[C@@H]1O` was tested. Which CC50 (HCT-116) did it give?
Answer: Its CC50 is 587 nM.

Question: What about the CC50 (THP-1) of the same molecule?
Answer: The CC50 was 163 nM.

Question: And the IC50 (SUMO-activating enzyme)?
Answer: The IC50 was 470 nM.

Question: Which results are given for `NS(=O)(=O)OC[C@H]1C[C@@H](Nc2ncncc2C(=O)c2cn(Cc3cc(C(F)(F)F)cc(C(F)(F)F)c3)c3ccccc23)[C@H](O)[C@@H]1O`?
Answer: CC50 (HCT-116): 4120 nM; CC50 (THP-1): 2780 nM

Question: Which results are given for `Cc1cccc(Cn2cc(C(=O)c3cncnc3N[C@@H]3C[C@H](COS(N)(=O)=O)[C@@H](O)[C@H]3O)c3ccccc32)n1`?
Answer: CC50 (HCT-116): 413 nM; CC50 (THP-1): 55.3 nM; IC50 (SUMO-activating enzyme): 2210 nM

Question: `NS(=O)(=O)OC[C@H]1C[C@@H](Nc2ncncc2C(=O)c2cn(Cc3cccc(Br)c3)c3ccccc23)[C@H](O)[C@@H]1O` was tested. Which CC50 (HCT-116) did it give?
Answer: The CC50 was 934 nM.

Question: And the CC50 (THP-1)?
Answer: Its CC50 is 223 nM.

Question: And the IC50 (SUMO-activating enzyme)?
Answer: Its IC50 is 100 nM.

Question: What does the source list for `NS(=O)(=O)OC[C@H]1C[C@@H](Nc2ncncc2C(=O)c2cn(Cc3cccc(Cl)c3)c3ccccc23)[C@H](O)[C@@H]1O`?
Answer: CC50 (HCT-116): 790 nM; IC50 (NEDD8 activating enzyme): 19 nM; CC50 (THP-1): 600 nM; IC50 (SUMO-activating enzyme): 460 nM

Question: Which results are given for `NS(=O)(=O)OC[C@H]1C[C@@H](Nc2ncncc2C(=O)c2cn(Cc3cccc(F)c3)c3ccccc23)[C@H](O)[C@@H]1O`?
Answer: CC50 (HCT-116): 456 nM; IC50 (NEDD8 activating enzyme): 91 nM; CC50 (THP-1): < 30 nM; IC50 (SUMO-activating enzyme): 1650 nM

Question: Which CC50 (HCT-116) does the source give for `COc1cccc(Cn2cc(C(=O)c3cncnc3N[C@@H]3C[C@H](COS(N)(=O)=O)[C@@H](O)[C@H]3O)c3ccccc32)c1` here?
Answer: The CC50 was 431 nM.

Question: What about the IC50 (NEDD8 activating enzyme) of the same molecule?
Answer: Its IC50 is 22 nM.

Question: And the CC50 (THP-1)?
Answer: The CC50 was < 30 nM.

Question: And the IC50 (SUMO-activating enzyme)?
Answer: The IC50 was 40 nM.

Question: For `Cc1cccc(Cn2cc(C(=O)c3cncnc3N[C@@H]3C[C@H](COS(N)(=O)=O)[C@@H](O)[C@H]3O)c3cc(F)ccc32)c1`, which IC50 (SUMO-activating enzyme) is on record?
Answer: The IC50 was 680 nM.

Question: Which results are given for `NS(=O)(=O)OC[C@H]1C[C@@H](Nc2ncncc2C(=O)c2cn(Cc3cccc(Br)c3)c3ncccc23)[C@H](O)[C@@H]1O`?
Answer: CC50 (HCT-116): 2010 nM; CC50 (THP-1): 813 nM; IC50 (SUMO-activating enzyme): 661 nM

Question: For `NS(=O)(=O)OC[C@H]1C[C@@H](Nc2ncncc2C(=O)c2cn(CC3CCCCC3)c3ccccc23)[C@H](O)[C@@H]1O`, which IC50 (SUMO-activating enzyme) is on record?
Answer: Its IC50 is 1650 nM.

Question: For `NS(=O)(=O)OC[C@H]1C[C@@H](Nc2ncncc2C(=O)c2cn(Cc3ccc(C(F)(F)F)o3)c3ccccc23)[C@H](O)[C@@H]1O`, which CC50 (HCT-116) is on record?
Answer: Its CC50 is 2010 nM.

Question: What about the CC50 (THP-1) of the same molecule?
Answer: Its CC50 is 813 nM.

Question: And the IC50 (SUMO-activating enzyme)?
Answer: The IC50 was 1290 nM.

Question: What does the source list for `NS(=O)(=O)OC[C@H]1C[C@@H](Nc2ncncc2C(=O)c2cn(Cc3cc(Cl)ccc3Cl)c3ccccc23)[C@H](O)[C@@H]1O`?
Answer: CC50 (HCT-116): 643 nM; IC50 (NEDD8 activating enzyme): 37 nM; CC50 (THP-1): 662 nM

Question: `C/C=C/Cn1cc(C(=O)c2cncnc2NC2C[C@H](COS(N)(=O)=O)[C@@H](O)[C@H]2O)c2ccccc21` (single isomer, unassigned) was tested. Which IC50 (SUMO-activating enzyme) did it give?
Answer: The IC50 was 1860 nM.

Question: With `NS(=O)(=O)OC[C@H]1C[C@@H](Nc2ncncc2C(=O)c2cn(Cc3ccc(F)cc3F)c3ccccc23)[C@H](O)[C@@H]1O` as the molecule, how does the CC50 (HCT-116) read?
Answer: Its CC50 is 1480 nM.

Question: What about the IC50 (NEDD8 activating enzyme) of the same molecule?
Answer: The IC50 was 8 nM.

Question: What about the CC50 (THP-1) of the same molecule?
Answer: The CC50 was 1560 nM.

Question: What about the IC50 (SUMO-activating enzyme) of the same molecule?
Answer: Its IC50 is 30 nM.

Question: `NS(=O)(=O)OC[C@H]1C[C@@H](Nc2ncncc2C(=O)c2cn(Cc3ccccc3)c3ccccc23)C[C@@H]1O` was tested. Which IC50 (NEDD8 activating enzyme) did it give?
Answer: The IC50 was 0.6 nM.

Question: What about the IC50 (SUMO-activating enzyme) of the same molecule?
Answer: Its IC50 is 560 nM.

Question: `NS(=O)(=O)OC[C@H]1C[C@@H](Nc2ncncc2C(=O)c2cn(Cc3cccc(Br)c3)c3ccc(F)cc23)[C@H](O)[C@@H]1O` was tested. Which CC50 (HCT-116) did it give?
Answer: Its CC50 is 1010 nM.

Question: What about the IC50 (NEDD8 activating enzyme) of the same molecule?
Answer: Its IC50 is 0.9 nM.

Question: And the CC50 (THP-1)?
Answer: Its CC50 is 896 nM.

Question: And the IC50 (SUMO-activating enzyme)?
Answer: The IC50 was 530 nM.
